Data on one molecule can be found in ChEMBL document CHEMBL1143887, “Novel amino linkers enabling efficient labeling and convenient purification of amino-modified oligonucleotides” (Bioorg Med Chem, 2008).

This data set in a line: Dissociation constant, pKa of the compound. The format is physicochemical.

The structures appear in SMILES notation.

As to `NC[C@H](COCc1cccc2ccccc12)OC(=O)NCCCCCCO`, the pKa came out at 8.9.

In general, pKa refers to the negative logarithm of the acid dissociation constant. A higher pKa goes with a weaker acid or stronger base.
